Laboratory results taken from ChEMBL document CHEMBL1136459, “New antibacterial tetrahydro-4(2H)-thiopyran and thiomorpholine S-oxide and S,S-dioxide phenyloxazolidinones” (Bioorg Med Chem Lett, 2003).
≈ marks a conversion by molar mass, not a printed value.

Tests used:
Haemophilus influenzae [1] = experiment: In vitro antibacterial activity against Haemophilia influenzae strains 30063 and ATCC 31517 (HI); range is 32->64; assay type: functional
Moraxella catarrhalis [2] = experiment: In vitro antibacterial activity against Moraxella catarrhalis strains 30607 and 30603 (MC); range is 16-32; assay type: functional
Staphylococcus aureus [3] = experiment: In vitro antibacterial activity against Staphylococcus aureus strains UC12673, UC9213, ATCC 29213, and UC9271 (SA); range is 16-32; assay type: functional
[4] = tested on: Staphylococcus epidermidis; experiment: In vitro antibacterial activity against Staphylococcus epidermidis strains UC12084, 30031, and CDC-CNS90 (SE); range is 4-8; assay type: functional
Staphylococcus aureus [5] = experiment: In vitro antibacterial activity against linezolid-resistant Staphylococcus aureus ATCC 29213 (LRSA).; assay type: functional
Enterococcus faecium = experiment: In vitro antibacterial activity against vancomycin-resistant Enterococcus faecium UC12712 (VRE).
Streptococcus pneumoniae [6] = experiment: In vitro antibacterial activity against Streptococcus pneumoniae strains ATCC 6305 and 31573 (SPN); range is 4-8
Haemophilus influenzae [7] = experiment: In vitro antibacterial activity against Haemophilia influenzae strains ATCC 30063 and ATCC 31517; assay type: functional
Moraxella catarrhalis [8] = experiment: In vitro antibacterial activity against Moraxella catarrhalis strains 30607 and 30603 (MC).; assay type: functional
Staphylococcus aureus [9] = experiment: In vitro antibacterial activity against Staphylococcus aureus strains UC12673, UC9213, ATCC 29213, and UC9271 (SA); assay type: functional
[10] = tested on: Staphylococcus epidermidis; experiment: In vitro antibacterial activity against Staphylococcus epidermidis strains UC12084, 30031, and CDC-CNS90 (SE); assay type: functional
Streptococcus pneumoniae [11] = experiment: In vitro antibacterial activity against Streptococcus pneumoniae strains ATCC6305 and 31573 (SPN).
Staphylococcus aureus [12] = experiment: In vitro antibacterial activity against Staphylococcus aureus strains UC12673, UC9213, ATCC 29213, and UC9271 (SA); range is 2-4; assay type: functional
Moraxella catarrhalis [13] = experiment: In vitro antibacterial activity against Moraxella catarrhalis strains 30607 and 30603 (MC); range is 8-16; assay type: functional
[14] = tested on: Staphylococcus epidermidis; experiment: In vitro antibacterial activity against Staphylococcus epidermidis strains UC12084, 30031, and CDC-CNS90 (SE); range is 1-2; assay type: functional
Staphylococcus aureus [15] = experiment: In vitro antibacterial activity against Staphylococcus aureus strains UC12673, UC9213, ATCC 29213, and UC9271 (SA); range is 2-8; assay type: functional
Streptococcus pneumoniae [16] = experiment: In vitro antibacterial activity against Streptococcus pneumoniae strains ATCC 6305 and 31573 (SPN).; assay type: functional
Moraxella catarrhalis [17] = experiment: In vitro antibacterial activity against Moraxella catarrhalis strains 30607 and 30603 (MC); range is 32->64; assay type: functional
[18] = tested on: Staphylococcus epidermidis; experiment: In vitro antibacterial activity against Staphylococcus epidermidis strains UC12084, 30031, and CDC-CNS90 (SE); range is 32-64; assay type: functional
Haemophilus influenzae [19] = experiment: In vitro antibacterial activity against Haemophilia influenzae strains 30063 and ATCC 31517 (HI); range is 4-16; assay type: functional
Staphylococcus aureus [20] = experiment: In vitro antibacterial activity against Staphylococcus aureus strains UC12673, UC9213, ATCC 29213, and UC9271 (SA); range is 4-16; assay type: functional
[21] = tested on: Staphylococcus epidermidis; experiment: In vitro antibacterial activity against Staphylococcus epidermidis strains UC12084, 30031, and CDC-CNS90 (SE); range is 0.5-1; assay type: functional
Haemophilus influenzae [22] = experiment: In vitro antibacterial activity against Haemophilia influenzae strains 30063 and ATCC 31517 (HI); range is 32-64; assay type: functional
Staphylococcus aureus [23] = experiment: In vitro antibacterial activity against Staphylococcus aureus strains UC12673, UC9213, ATCC 29213, and UC9271 (SA); range is 4-8; assay type: functional

SMILES | MIC (Staphylococcus aureus [5]) [µg/mL] | MIC (Enterococcus faecium) [µg/mL] | MIC (Haemophilus influenzae [7]) [µg/mL] | MIC (Moraxella catarrhalis [8]) [µg/mL] | MIC (Staphylococcus aureus [9]) [µg/mL] | MIC [10] [µg/mL] | also measured
COCC(=O)NC[C@H]1CN(c2ccc(N3CC[S+]([O-])CC3)c(F)c2)C(=O)O1 | > 64 | 16 (≈ 40.1 µM) |  |  |  |  | MIC (Haemophilus influenzae [1]): 32 µg/mL (≈ 80.1 µM); MIC (Moraxella catarrhalis [2]): 16 µg/mL (≈ 40.1 µM); MIC (Staphylococcus aureus [3]): 16 µg/mL (≈ 40.1 µM); MIC [4]: 4 µg/mL (≈ 10 µM); MIC (Streptococcus pneumoniae [6]): 4 µg/mL (≈ 10 µM)
O=C1O[C@@H](CNC(=O)C(F)(F)F)CN1c1ccc(N2CC[S+]([O-])CC2)c(F)c1 | > 64 | > 64 | > 64 | > 64 | > 64 | > 64 | MIC (Streptococcus pneumoniae [11]): > 64 µg/mL
O=C(/C=C/c1ccc(Cl)cc1)NC[C@H]1CN(c2ccc(N3CC[S+]([O-])CC3)c(F)c2)C(=O)O1 | 8 (≈ 16.3 µM) | 2 (≈ 4.07 µM) |  | 8 (≈ 16.3 µM) |  | 1 (≈ 2.03 µM) | MIC (Haemophilus influenzae [1]): 32 µg/mL (≈ 65 µM); MIC (Staphylococcus aureus [12]): 2 µg/mL (≈ 4.07 µM)
COc1ccc(/C=C/C(=O)NC[C@H]2CN(c3ccc(N4CC[S+]([O-])CC4)c(F)c3)C(=O)O2)cc1 | > 64 | 4 (≈ 8.2 µM) | > 64 | > 64 | 4 (≈ 8.2 µM) | 2 (≈ 4.1 µM) | 
CC(=O)Oc1ccc(/C=C/C(=O)NC[C@H]2CN(c3ccc(C4CC[S+]([O-])CC4)c(F)c3)C(=O)O2)cc1 (stereo not given in full) |  |  | 32 (≈ 62.2 µM) |  |  |  | MIC (Moraxella catarrhalis [13]): 8 µg/mL (≈ 15.5 µM); MIC [14]: 1 µg/mL (≈ 1.94 µM); MIC (Staphylococcus aureus [15]): 2 µg/mL (≈ 3.89 µM); MIC (Streptococcus pneumoniae [16]): 8 µg/mL (≈ 15.5 µM)
O=C1O[C@@H](CNC(=O)C(F)(F)F)CN1c1ccc(N2CCS(=O)(=O)CC2)c(F)c1 | 16 (≈ 36.4 µM) | 16 (≈ 36.4 µM) | ≥ 64 |  |  | 8 (≈ 18.2 µM) | MIC (Moraxella catarrhalis [17]): 32 µg/mL (≈ 72.8 µM); MIC (Staphylococcus aureus [3]): 16 µg/mL (≈ 36.4 µM)
O=C(NC[C@H]1CN(c2ccc(C3CCS(=O)(=O)CC3)c(F)c2)C(=O)O1)c1ccc(Cl)c(Cl)c1 |  |  | > 64 | > 64 | > 64 | 2 (≈ 3.88 µM) | MIC (Streptococcus pneumoniae [16]): > 64 µg/mL
COc1ccc(OC)c(C(=O)NC[C@H]2CN(c3ccc(N4CC[S+]([O-])CC4)c(F)c3)C(=O)O2)c1 | > 64 | > 64 | > 64 | > 64 | ≥ 64 |  | MIC [18]: 32 µg/mL (≈ 65.1 µM)
O=C(NC[C@H]1CN(c2ccc(C3CCS(=O)(=O)CC3)c(F)c2)C(=O)O1)C(F)F | 32 (≈ 76.1 µM) | 4 (≈ 9.51 µM) |  | 8 (≈ 19 µM) |  |  | MIC (Haemophilus influenzae [19]): > 4 µg/mL; MIC [14]: 1 µg/mL (≈ 2.38 µM); MIC (Staphylococcus aureus [20]): 4 µg/mL (≈ 9.51 µM); MIC (Streptococcus pneumoniae [11]): 1 µg/mL (≈ 2.38 µM)
O=C(CF)NC[C@H]1CN(c2ccc(C3CCS(=O)(=O)CC3)c(F)c2)C(=O)O1 | 64 (≈ 159 µM) | 2 (≈ 4.97 µM) |  | > 8 | 2 (≈ 4.97 µM) |  | MIC (Haemophilus influenzae [19]): > 4 µg/mL; MIC [21]: 0.5 µg/mL (≈ 1.24 µM); MIC (Streptococcus pneumoniae [11]): 0.5 µg/mL (≈ 1.24 µM)
O=C(/C=C/c1ccc(O)cc1)NC[C@H]1CN(c2ccc(C3CC[S+]([O-])CC3)c(F)c2)C(=O)O1 (stereo not given in full) | > 64 | 4 (≈ 8.46 µM) | > 64 |  |  |  | MIC (Moraxella catarrhalis [13]): 8 µg/mL (≈ 16.9 µM); MIC [14]: 1 µg/mL (≈ 2.12 µM); MIC (Staphylococcus aureus [15]): 2 µg/mL (≈ 4.23 µM)
O=C(/C=C/c1ccc(F)cc1)NC[C@H]1CN(c2ccc(N3CC[S+]([O-])CC3)c(F)c2)C(=O)O1 | 32 (≈ 67.3 µM) | 4 (≈ 8.41 µM) |  |  |  | 2 (≈ 4.21 µM) | MIC (Haemophilus influenzae [22]): 32 µg/mL (≈ 67.3 µM); MIC (Moraxella catarrhalis [2]): 16 µg/mL (≈ 33.6 µM); MIC (Staphylococcus aureus [23]): 4 µg/mL (≈ 8.41 µM)
O=C(NC[C@H]1CN(c2ccc(N3CC[S+]([O-])CC3)c(F)c2)C(=O)O1)c1csnn1 | > 64 | 16 (≈ 36.4 µM) | 64 (≈ 146 µM) |  |  | 8 (≈ 18.2 µM) | MIC (Moraxella catarrhalis [17]): 32 µg/mL (≈ 72.8 µM); MIC (Staphylococcus aureus [3]): 16 µg/mL (≈ 36.4 µM)
